Data on 4 compounds can be found in the supplement of paper PMC10307832.

For the first experiment, the system named is LU99A. The experiment can be described thus: relative viability (nuclei count vs DMSO), 5 days (fraction); higher = more cells survive. The following applies: first compound 0.2 µM. A digest of the protocol:
(§1)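 Relative viability equals treated-well nuclei counts divided by vehicle-well nuclei counts. Counts came from 4× images of lung cancer cell lines grown in 1536-well plates for 5 days after pin-tool dosing on the day after seeding. Dosing used one drug alone or a fixed anchor-drug dose plus five library-drug doses (not always all listed) in √10 steps, and values are medians of duplicate plates.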
The compound `COCC1(CO)C(=O)C2CCN1CC2` (stereo unspecified) [PRIMA-1MET] + CC(=O)c1c(C)c2cnc(Nc3ccc(N4CCNCC4)cn3)nc2n(C2CCCC2)c1=O [Palbociclib] (partner 0.5 µM) had a relative viability of 0.43.

In turn, `COCC1(CO)C(=O)C2CCN1CC2` (stereo unspecified) [PRIMA-1MET] + Cc1nc(Nc2ncc(C(=O)Nc3c(C)cccc3Cl)s2)cc(N2CCN(CCO)CC2)n1 [Dasatinib] (partner 0.075 µM) had a relative viability of 0.612.

In the case of `COCC1(CO)C(=O)C2CCN1CC2` (stereo unspecified) [PRIMA-1MET] + O=C(c1cc(Cc2n[nH]c(=O)c3ccccc23)ccc1F)N1CCN(C(=O)C2CC2)CC1 [Olaparib] (partner 8 µM), the relative viability turned out to be 0.312.

Staying with this experiment, now noted: first compound 0.6325 µM.
The compound `COCC1(CO)C(=O)C2CCN1CC2` (stereo unspecified) [PRIMA-1MET] + N=C(N)NC(=N)NCCc1ccccc1 [Phenformin] (partner 250 µM) yielded a relative viability of 0.736.

As to `COCC1(CO)C(=O)C2CCN1CC2` (stereo unspecified) [PRIMA-1MET] + CC(=O)c1c(C)c2cnc(Nc3ccc(N4CCNCC4)cn3)nc2n(C2CCCC2)c1=O [Palbociclib] (partner 0.5 µM), the relative viability was 0.414.

As to `COCC1(CO)C(=O)C2CCN1CC2` (stereo unspecified) [PRIMA-1MET] + Cc1nc(Nc2ncc(C(=O)Nc3c(C)cccc3Cl)s2)cc(N2CCN(CCO)CC2)n1 [Dasatinib] (partner 0.075 µM), the relative viability stood at 0.513.

`COCC1(CO)C(=O)C2CCN1CC2` (stereo unspecified) [PRIMA-1MET] + O=C(c1cc(Cc2n[nH]c(=O)c3ccccc23)ccc1F)N1CCN(C(=O)C2CC2)CC1 [Olaparib] (partner 8 µM) displayed a relative viability of 0.24.

The same experiment, now with this note: first compound 2 µM.
The compound `COCC1(CO)C(=O)C2CCN1CC2` (stereo unspecified) [PRIMA-1MET] + N=C(N)NC(=N)NCCc1ccccc1 [Phenformin] (partner 250 µM) registered a relative viability of 0.734.

`COCC1(CO)C(=O)C2CCN1CC2` (stereo unspecified) [PRIMA-1MET] + CC(=O)c1c(C)c2cnc(Nc3ccc(N4CCNCC4)cn3)nc2n(C2CCCC2)c1=O [Palbociclib] (partner 0.5 µM) came in with a relative viability of 0.414.

`COCC1(CO)C(=O)C2CCN1CC2` (stereo unspecified) [PRIMA-1MET] + Cc1nc(Nc2ncc(C(=O)Nc3c(C)cccc3Cl)s2)cc(N2CCN(CCO)CC2)n1 [Dasatinib] (partner 0.075 µM): the relative viability was 0.586.

For the compound `COCC1(CO)C(=O)C2CCN1CC2` (stereo unspecified) [PRIMA-1MET] + O=C(c1cc(Cc2n[nH]c(=O)c3ccccc23)ccc1F)N1CCN(C(=O)C2CC2)CC1 [Olaparib] (partner 8 µM), the relative viability was 0.263.

Still in this experiment, the particulars now being: first compound 6.325 µM.
For `COCC1(CO)C(=O)C2CCN1CC2` (stereo unspecified) [PRIMA-1MET] + N=C(N)NC(=N)NCCc1ccccc1 [Phenformin] (partner 250 µM), the relative viability amounted to 0.831.

In turn, `COCC1(CO)C(=O)C2CCN1CC2` (stereo unspecified) [PRIMA-1MET] + CC(=O)c1c(C)c2cnc(Nc3ccc(N4CCNCC4)cn3)nc2n(C2CCCC2)c1=O [Palbociclib] (partner 0.5 µM) registered a relative viability of 0.349.

As to `COCC1(CO)C(=O)C2CCN1CC2` (stereo unspecified) [PRIMA-1MET] + Cc1nc(Nc2ncc(C(=O)Nc3c(C)cccc3Cl)s2)cc(N2CCN(CCO)CC2)n1 [Dasatinib] (partner 0.075 µM), the relative viability worked out at 0.671.

In turn, `COCC1(CO)C(=O)C2CCN1CC2` (stereo unspecified) [PRIMA-1MET] + O=C(c1cc(Cc2n[nH]c(=O)c3ccccc23)ccc1F)N1CCN(C(=O)C2CC2)CC1 [Olaparib] (partner 8 µM) returned a relative viability of 0.22.

The same experiment, now with this note: first compound 20 µM.
`COCC1(CO)C(=O)C2CCN1CC2` (stereo unspecified) [PRIMA-1MET] + N=C(N)NC(=N)NCCc1ccccc1 [Phenformin] (partner 250 µM) came in with a relative viability of 0.0482.

Compound `COCC1(CO)C(=O)C2CCN1CC2` (stereo unspecified) [PRIMA-1MET] + CC(=O)c1c(C)c2cnc(Nc3ccc(N4CCNCC4)cn3)nc2n(C2CCCC2)c1=O [Palbociclib] (partner 0.5 µM) came in with a relative viability of 0.225.

`COCC1(CO)C(=O)C2CCN1CC2` (stereo unspecified) [PRIMA-1MET] + Cc1nc(Nc2ncc(C(=O)Nc3c(C)cccc3Cl)s2)cc(N2CCN(CCO)CC2)n1 [Dasatinib] (partner 0.075 µM) returned a relative viability of 0.0333.

In turn, `COCC1(CO)C(=O)C2CCN1CC2` (stereo unspecified) [PRIMA-1MET] + O=C(c1cc(Cc2n[nH]c(=O)c3ccccc23)ccc1F)N1CCN(C(=O)C2CC2)CC1 [Olaparib] (partner 8 µM) displayed a relative viability of 0.0441.

The test system of a further experiment is NCI-H1355. The description is as above. The conditions noted are these: first compound 0.2 µM. The method in brief: as §1
In the case of `COCC1(CO)C(=O)C2CCN1CC2` (stereo unspecified) [PRIMA-1MET] + N=C(N)NC(=N)NCCc1ccccc1 [Phenformin] (partner 250 µM), the relative viability was found to be 0.443.

In turn, `COCC1(CO)C(=O)C2CCN1CC2` (stereo unspecified) [PRIMA-1MET] + CC(=O)c1c(C)c2cnc(Nc3ccc(N4CCNCC4)cn3)nc2n(C2CCCC2)c1=O [Palbociclib] (partner 0.5 µM) came in with a relative viability of 0.465.

As to `COCC1(CO)C(=O)C2CCN1CC2` (stereo unspecified) [PRIMA-1MET] + Cc1nc(Nc2ncc(C(=O)Nc3c(C)cccc3Cl)s2)cc(N2CCN(CCO)CC2)n1 [Dasatinib] (partner 0.075 µM), the relative viability stood at 0.793.

The compound `COCC1(CO)C(=O)C2CCN1CC2` (stereo unspecified) [PRIMA-1MET] + O=C(c1cc(Cc2n[nH]c(=O)c3ccccc23)ccc1F)N1CCN(C(=O)C2CC2)CC1 [Olaparib] (partner 8 µM) came in with a relative viability of 0.768.

The same experiment, now with this note: first compound 0.6325 µM.
Take `COCC1(CO)C(=O)C2CCN1CC2` (stereo unspecified) [PRIMA-1MET] + N=C(N)NC(=N)NCCc1ccccc1 [Phenformin] (partner 250 µM): the relative viability stood at 0.409.

Consider `COCC1(CO)C(=O)C2CCN1CC2` (stereo unspecified) [PRIMA-1MET] + CC(=O)c1c(C)c2cnc(Nc3ccc(N4CCNCC4)cn3)nc2n(C2CCCC2)c1=O [Palbociclib] (partner 0.5 µM), for which the relative viability worked out at 0.393.

Take `COCC1(CO)C(=O)C2CCN1CC2` (stereo unspecified) [PRIMA-1MET] + Cc1nc(Nc2ncc(C(=O)Nc3c(C)cccc3Cl)s2)cc(N2CCN(CCO)CC2)n1 [Dasatinib] (partner 0.075 µM): the relative viability is 0.571.
